{
  "source": "paper PMC5807445",
  "about": "“A printable hydrogel microarray for drug screening avoids false positives associated with promiscuous aggregating inhibitors” (Nature Communications, 2018)",
  "key": {"[1]": {"biological_target": "T1, TEM-1 β-lac (Escherichia coli, UniProt P62593)", "T1 sequence (P62593 24-286 limits assumed)": "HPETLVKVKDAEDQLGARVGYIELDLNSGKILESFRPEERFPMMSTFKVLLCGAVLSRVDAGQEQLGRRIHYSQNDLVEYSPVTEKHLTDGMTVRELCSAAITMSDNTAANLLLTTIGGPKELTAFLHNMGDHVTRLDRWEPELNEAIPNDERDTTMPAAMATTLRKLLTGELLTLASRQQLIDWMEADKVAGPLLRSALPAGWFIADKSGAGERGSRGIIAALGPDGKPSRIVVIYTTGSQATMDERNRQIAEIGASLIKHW", "assay": "Printed hydrogel-based β-lac assay (nitrocefin, colorimetric image analysis)", "assay_type": "biochemical", "conditions": "promiscuous aggregating inhibitors; starting concentration 100 μM", "description": "Inhibitor solutions and nitrocefin (a colorimetric β-lac substrate) were subsequently deposited on the microzones at different concentrations using a high-throughput dispensing robot. The resulting colorimetric read-out of β-lac activity was quantified via image analysis.\nPOH ink solution was prepared with a final concentration of 50 nM β-lac and used to print hydrogel spots on a 96-well paper microzone plate as described previously. […] The inhibitor was incubated with the printed β-lac for 20 min, after which the assay was initiated with the addition of 5 μl of nitrocefin (500 μM) to each microzone. […] Images were taken with a Canon DSLR camera (operated in manual focus mode without flash) after 25 min. The wax-printed background was filtered out using GIMP software (Version 2.8.16). Image analysis was performed using Fiji, with the converted substrate color extracted using the Color Deconvolution plugin. Extracted images were inverted and converted to 8 bit grayscale images. The intensity of each sample was measured and presented as a ratio of the control image (i.e., a microzone not treated with inhibitor). Calculation of IC50 values was carried out in OriginPro by plotting the calculated percentage inhibition against the added inhibitor concentration. Curve fitting was performed with the dose–response function (OriginLab Corporation, Northampton, MA, USA)."}, "[2]": {"assay": "Promiscuous aggregating inhibitor size measurement by dynamic light scattering (DLS)", "assay_type": "physicochemical", "conditions": "100 μM solutions; for Aggregate size (Z-average diameter, DLS) / Polydispersity (DLS): 23°C", "description": "Promiscuous aggregating inhibitor size measurement\nDynamic light scattering measurements were performed using a Zetasizer Nano ZS instrument (Malvern). The intensity of backscattered light was measured at a 173° angle. Data collection and analysis were performed using the Dispersion Technology Software (version 6.0) from Malvern. Samples of Rottlerin, BIS IX and TIPT at 100 μM concentrations were analyzed in a plastic cuvette with a 10 mm path length. Prior to measurement, samples were equilibrated for 120 s at 23°C. For each sample, 10 runs were performed with three repetitions. The intensity size distribution, Z-average diameter and polydispersity index was collected for each sample. Note that no significant signal was acquired from DLS measurements on the true inhibitors, confirming their solution state."}, "[3]": {"biological_target": "T1, TEM-1 β-lac", "assay": "Solution-based β-lac assay (nitrocefin hydrolysis, absorbance at 492 nm)", "assay_type": "biochemical", "conditions": "promiscuous aggregating inhibitors; diluted from 10 mM DMSO stocks"}, "[4]": {"biological_target": "β-lactamase", "conditions": "reported literature values; cited from earlier work"}},
  "data": [
    {"smiles": "[H]/N=C(/N)SCCCn1cc(C2=C(c3cn(C)c4ccccc34)C(=O)NC2=O)c2ccccc21", "note": "[BIS IX, bisindolylmaleimide IX]", "values": [
      {"measurement": "Specific inhibition of β-lac in the hydrogel-based assay", "setting": "[1]", "value": "no specific inhibition"},
      {"measurement": "Particle size range of aggregates (DLS intensity distribution)", "setting": "[2]", "value": "50-800 nm"},
      {"measurement": "Aggregate size (Z-average diameter, DLS)", "setting": "[2]", "value": "365 ± 9", "unit": "nm"},
      {"measurement": "Polydispersity (DLS)", "setting": "[2]", "value": "0.36 ± 0.02"},
      {"measurement": "Inhibition of β-lac in the solution-based assay (false-positive hit)", "setting": "[3]", "value": "inhibited"}
    ]},
    {"smiles": "CC(=O)c1c(O)c(C)c(O)c(Cc2c(O)c3c(c(C(=O)/C=C/c4ccccc4)c2O)OC(C)(C)C=C3)c1O", "note": "[Rottlerin, rottlerin]", "values": [
      {"measurement": "Specific inhibition of β-lac in the hydrogel-based assay", "setting": "[1]", "value": "no specific inhibition"},
      {"measurement": "Particle size range of aggregates (DLS intensity distribution)", "setting": "[2]", "value": "50-800 nm"},
      {"measurement": "Aggregate size (Z-average diameter, DLS)", "setting": "[2]", "value": "188 ± 1", "unit": "nm"},
      {"measurement": "Polydispersity (DLS)", "setting": "[2]", "value": "0.24 ± 0.01"},
      {"measurement": "Inhibition of β-lac in the solution-based assay (false-positive hit)", "setting": "[3]", "value": "inhibited"}
    ]},
    {"smiles": "CC1(C)[C@H](C(=O)O)N2C(=O)C[C@H]2S1(=O)=O", "note": "[Sulbactam, sulbactam]", "values": [
      {"measurement": "IC50", "setting": "[4]", "value": 6.1, "unit": "µM"}
    ]},
    {"smiles": "O=C1OC(c2cc(I)c(O)c(I)c2)(c2c(I)cc(O)cc2I)c2ccccc21", "note": "(centres unmarked) [TIPT, tetraiodophenolphthalein]", "values": [
      {"measurement": "Specific inhibition of β-lac in the hydrogel-based assay", "setting": "[1]", "value": "no specific inhibition"},
      {"measurement": "Particle size range of aggregates (DLS intensity distribution)", "setting": "[2]", "value": "50-800 nm"},
      {"measurement": "Aggregate size (Z-average diameter, DLS)", "setting": "[2]", "value": "154 ± 1", "unit": "nm"},
      {"measurement": "Polydispersity (DLS)", "setting": "[2]", "value": "0.16 ± 0.02"},
      {"measurement": "Inhibition of β-lac in the solution-based assay (false-positive hit)", "setting": "[3]", "value": "inhibited"}
    ]},
    {"smiles": "C[C@]1(Cn2ccnn2)[C@H](C(=O)O)N2C(=O)C[C@H]2S1(=O)=O", "note": "[Tazobactam, tazobactam]", "values": [
      {"measurement": "IC50", "setting": "[4]", "value": 0.04, "unit": "µM"}
    ]}
  ]
}
